From patent EP2356213B1, “STEM CELL AGGREGATE SUSPENSION COMPOSITIONS AND METHODS FOR DIFFERENTIATION THEREOF” (VIACYTE, INC., priority 2008, dated 2010)
Entries after “also recorded” stand apart in the source; their conditions may differ.

Legend:
R1 mouse ES cells = assay: Effect of ErbB1/ErbB2 inhibitors on proliferation of mouse ES cells (alkaline phosphatase staining, 8 days); assay type: cell-based
Experimental: AG1478 and AG879 were used to examine the role of HRG/ErbB signaling in mouse ES cells. R1 mouse ES cells were maintained in standard conditions in DMEM, 10% FBS, 10% KSR, 0.5 U/mL penicillin, 0.5 U/mL streptomycin, 1xNEAA, 1 mM sodium pyruvate, 1000 U/mL LIF (ESGRO), 0.1 mM β-ME, and were passaged with 0.5% trypsin/EDTA. 2x10^5 cells/well were plated in 6 well trays on MATRIGEL™ diluted at 1:1000. The day after plating, DMSO (carrier control), 1-50 µM AG1478, or 1-50 µM AG879 was added with fresh medium. The cells were cultured an additional 8 days, with daily media changes. The cultures were then fixed and stained for alkaline phosphatase activity.

BGOlv cells = assay: Effect of ErbB tyrosine kinase inhibitors on proliferation of BG01v hESCs (alkaline phosphatase staining after 5 days); assay type: cell-based
Experimental: The EGF domain family of ligands bind to the ErbB family of receptor tyrosine kinases. To examine the effect of known inhibitors of ErbB tyrosine kinases in hESCs, BGOlv cells were plated in 6 well trays on MATRIGEL™ diluted at 1:1000, in defined culture medium (DC) containing 100 ng/mL LongR3-IGFl, 8 ng/mL FGF2 and 1 ng/mL Activin A. On the next day, DMSO (carrier control), 50 nM-20 µM AG1478 (an ErbB1 inhibitor), or 100 nM-20 µM AG879 (an ErbB2 inhibitor) was added with fresh medium. The cells were cultured for an additional 5 days, with daily media changes. The cultures were then fixed and stained for alkaline phosphatase activity.

[1] = test system: pancreatic epithelial and endocrine type cells; assay: Re-aggregation of dissociated stage 4 or stage 5 adherent cultures with ROCK inhibitor; assay type: cell-based, human; conditions: 10µM
Experimental: Adherent cultures at either stage 4 (about d10 - d14 into the differentiation protocol; pancreatic epithelial and endocrine type cells) or stage 5 (about day 16 to day 30 into the differentiation protocol; endocrine precursor and endocrine cells) were similarly dissociated into single cells, counted, and pelleted. The cell pellet was then resuspended in DMEM CMRL supplemented Pen/Strep and Glutamax, and IX B27-supplement and DNase (50-100 µg/ml, Roche Diagnostics) and 0-2% FBS. […] Cells were equally distributed into 6-well plates and placed on a rotating platform at 100 rpm to 140 rpm form 4 hours to overnight substantially as described above.

ES cells = assay: Suspension cultures in various media, cell counting; assay type: cell-based; conditions: added to HAIF, HAI, HI
Experimental: To determine if suspensions of ES cells could be cultured in the absence of FGF2 and/or Activin A, ES cells were cultured in a variety of media, with and without these factors. […] In addition, the cells in each media were successfully passaged with no morphological signs of differentiation. Table 3 - Suspension Cultures in Various Media

BG02 cells = assay: Suspension cultures with and without an apoptosis inhibitor, cell counting; assay type: cell-based, human
Experimental: To attenuate the loss of cells after initial passaging in suspension, an inhibitor of apoptosis was added to the medium. Cells were passaged as in Example 12, except that Y-27632, an inhibitor of p160-Rho-associated coiled-coil kinase (ROCK), was added to the medium.
Suspension aggregates of BG02 cells were formed by seeding 2x10^6 single cells in 6-well dishes in 3 mL DC-HAIF medium, at 100 rpm on a rotating platform in an incubator (Table 2, Experiment A). 10 µM Y27632 ROCK inhibitor was added to test wells for the course of the experiment and the cultures observed daily and counted after 24 hours (day 1) and after 4 or 5 days. […] Cell counting confirmed that more viable cells were present in the presence of inhibitor (Table 2, Experiment A). This difference in cell number persisted throughout the course of the culture period, with more cells also observed on day 4, compared to cultures without inhibitor. As with previous suspension culture experiments, cells exposed to Y27632 could also be serially passaged, and maintained in an undifferentiated state (not shown).
As previous experiments had shown that growth rates of cells in suspension and adherent culture were similar after the initial 24 hours, an experiment was performed where Y27632 was removed after this initial period (Table 2, Experiment B). […] 1.4x10^7 (+Y27632) and 1.8x107 (+/-Y27632) viable cells were generated when inhibitor was present compared to 3.9x10^6 cells in untreated cultures. This analysis confirmed that Y27632 had the largest impact during the first 24 hours of suspension hESC culture.
Because of the enhanced survival and aggregation observed in the presence of Y27632, an experiment was performed to examine if it was possible to reduce the number of cells used to seed suspension cultures (Table 2, Experiment C). […] To determine if addition of a ROCK inhibitor would allow cell seeding at lower densities, a range of cell concentrations (from about 2x10^6 total cells down to about 1x10^5 total cells was used to seed suspension cultures in 6-well trays cells in 3 mL DC-HAIF. 10 µM Y27632 was added to all conditions, and the cell number and viability assessed on day 5. Successful aggregation and expansion was observed even at low seeding densities. An approximately 13 fold expansion of viable cells was observed even cultures that were only seeded with 1x10^5 cells. Inhibition of ROCK with Y27632 therefore facilitated initial survival of hESCs at much lower densities in this suspension system. Table 2 - Suspension Cultures with and without an Apoptosis Inhibitor

BG02 hESCs = assay: Proliferation of hESCs in conditioned medium with AG825; assay type: cell-based, human
Source text: (§1) Colony and cell-counting assays confirmed that LongR3-IGFl and HRG played the major roles in self-renewal and proliferation in the context of one of the embodiments of the present invention (Fig. 6D, 6E). Phosphorylation of IGF1R, IR, […], ErbB2, and ErbB3 was also observed in both steady-state DC-HAIF cultures, and in starved cultures that were pulsed with DC-HAIF (Fig. 6F).

ErbB2 = molecular target: T1, ErbB2 (Homo sapiens, UniProt P04626); assay: Western blotting of ErbB2 autophosphorylation in starved/heregulin pulsed hESCs; assay type: cell-based; conditions: starved/heregulin (HRG) pulsed hESCs in DC-HAIF
T1 construct: endogenous in cells; host or cells: human embryonic stem cells (hESCs) growing in DC-HAIF
Source text: as §1

[2] = Expt. A, seeding 2x10^6, p0, day 1
[3] = Expt. A, seeding 2x10^6, p0, day 4
[4] = Expt. A, seeding 2x10^6, p1, day 4
[5] = Expt. B, seeding 2x10^6, p0, day 1
[6] = Expt. B, seeding 2x10^6, p0, day 5, +/-Y27632 = inhibitor removed after 24 hours, listed as +/-Y27632
[7] = Expt. B, seeding 2x10^6, p0, day 5, +/-Y27632 = inhibitor removed after 24 hours, listed as +Y27632
[8] = Expt. C, seeding 1x10^6, p0, day 1
[9] = Expt. C, seeding 1x10^6, p0, day 5
[10] = Expt. C, seeding 2x10^6, p0, day 1
[11] = Expt. C, seeding 2x10^6, p0, day 5
[12] = Expt. C, seeding 2.5x10^5, p0, day 1
[13] = Expt. C, seeding 2.5x10^5, p0, day 5
[14] = Expt. C, seeding 5x10^5, p0, day 1
[15] = Expt. C, seeding 5x10^5, p0, day 5
[16] = Expt. C, seeding 10^5, p0, day 1
[17] = Expt. C, seeding 10^5, p0, day 5

T1 sequence (P04626 23-1255): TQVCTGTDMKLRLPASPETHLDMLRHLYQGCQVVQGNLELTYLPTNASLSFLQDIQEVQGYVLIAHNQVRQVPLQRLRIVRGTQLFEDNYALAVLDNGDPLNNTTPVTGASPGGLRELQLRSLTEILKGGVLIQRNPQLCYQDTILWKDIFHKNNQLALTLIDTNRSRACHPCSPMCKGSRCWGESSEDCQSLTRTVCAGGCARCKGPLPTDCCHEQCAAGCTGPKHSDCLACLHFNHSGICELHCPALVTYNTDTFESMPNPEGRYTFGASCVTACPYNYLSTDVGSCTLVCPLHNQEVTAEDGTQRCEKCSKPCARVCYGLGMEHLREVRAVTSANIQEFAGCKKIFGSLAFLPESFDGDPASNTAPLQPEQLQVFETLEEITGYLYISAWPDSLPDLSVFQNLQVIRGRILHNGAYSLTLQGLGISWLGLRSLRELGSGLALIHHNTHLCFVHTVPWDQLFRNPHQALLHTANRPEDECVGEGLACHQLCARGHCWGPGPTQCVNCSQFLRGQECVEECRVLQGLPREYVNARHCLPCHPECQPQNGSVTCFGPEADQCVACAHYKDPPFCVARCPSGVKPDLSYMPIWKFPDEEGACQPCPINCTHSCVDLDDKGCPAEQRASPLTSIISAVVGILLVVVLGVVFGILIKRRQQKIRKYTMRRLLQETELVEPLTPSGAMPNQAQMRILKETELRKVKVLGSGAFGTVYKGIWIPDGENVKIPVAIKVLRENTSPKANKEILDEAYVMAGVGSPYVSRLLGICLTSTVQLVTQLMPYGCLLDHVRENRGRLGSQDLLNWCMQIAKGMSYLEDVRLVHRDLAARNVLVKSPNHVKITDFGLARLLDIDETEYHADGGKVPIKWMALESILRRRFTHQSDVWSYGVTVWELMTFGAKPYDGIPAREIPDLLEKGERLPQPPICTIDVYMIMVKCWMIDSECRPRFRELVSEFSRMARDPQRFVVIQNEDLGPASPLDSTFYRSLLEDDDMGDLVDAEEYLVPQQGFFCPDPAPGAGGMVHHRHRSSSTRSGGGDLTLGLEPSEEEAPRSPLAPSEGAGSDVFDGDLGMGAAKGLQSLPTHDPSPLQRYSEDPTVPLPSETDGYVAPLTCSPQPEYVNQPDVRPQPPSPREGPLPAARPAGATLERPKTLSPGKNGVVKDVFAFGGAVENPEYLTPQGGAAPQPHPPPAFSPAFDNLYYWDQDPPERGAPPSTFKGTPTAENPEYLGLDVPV

`COc1cc2ncnc(Nc3cccc(Cl)c3)c2cc1OC` [AG1478] was tested, and the cell proliferation (R1 mouse ES cells; 1-50 µM, 8 days, 10% FBS, 10% KSR, LIF) was “no apparent affect on cell proliferation; also recorded: did not overtly inhibit proliferation” and the cell proliferation (BGOlv cells; 50 nM-20 µM, 5 days, DC medium) was “neither DMSO nor AG1478 (50 nM-20 µM) had an apparent affect on cell proliferation; also recorded: did not appear to affect proliferation”.

For `C[C@@H](N)[C@H]1CC[C@H](C(=O)Nc2ccncc2)CC1` [Y27632], the cell survival [1] was “supported cell survival”, the “yield of cells generated by day 5” value (ES cells) was “increased the yield of cells generated by day 5 in all conditions” and the “expansion of viable cells” value (BG02 cells; 10 µM Y27632, seeded with 1x10^5 cells, day 5) was “approximately 13 fold”. The “initial aggregation in suspension culture” value (BG02 cells; 10 µM, compared to medium without inhibitor) was “much larger aggregates were formed”, the “differentiation state by RT-PCR” value (BG02 cells; BG02 suspension culture in the presence of Y27632) was “remained undifferentiated” and the “cell number when the aggregates were split again” value (BG02 cells; Expt. A, p1, vs without inhibitor) was “almost twice as many cells were observed”. The “Cell counts: total” value (BG02 cells; [2]) was 1.6x10^6, the “Cell counts: viable” value (BG02 cells; [2]) was 1.2x10^6 and the “Cell counts: viable, %” value (BG02 cells; [2]) was 74%. For the same compound, the “Cell counts: total” value (BG02 cells; [3]) was 7.8x10^6, the “Cell counts: viable” value (BG02 cells; [3]) was 7.1x10^6 and the “Cell counts: viable, %” value (BG02 cells; [3]) was 91%. For the same compound, the “Cell counts: total” value (BG02 cells; [4]) was 4.6x10^6, the “Cell counts: viable” value (BG02 cells; [4]) was 4.2x10^6 and the “Cell counts: viable, %” value (BG02 cells; [4]) was 91%. For the same compound, the “Cell counts: total” value (BG02 cells; [5]) was 1.9x10^6, the “Cell counts: viable” value (BG02 cells; [5]) was 1.4x10^6 and the “Cell counts: viable, %” value (BG02 cells; [5]) was 73%. The “Cell counts: total” value (BG02 cells; [6]) was 1.9x10^7, the “Cell counts: viable” value (BG02 cells; [6]) was 1.8x10^7 and the “Cell counts: viable, %” value (BG02 cells; [6]) was 96%. For the same compound, the “Cell counts: total” value (BG02 cells; [7]) was 1.5x10^7, the “Cell counts: viable” value (BG02 cells; [7]) was 1.4x10^7 and the “Cell counts: viable, %” value (BG02 cells; [7]) was 92%. The “Cell counts: total” value (BG02 cells; [8]) was 8.7x10^5, the “Cell counts: viable” value (BG02 cells; [8]) was 6.6x10^5 and the “Cell counts: viable, %” value (BG02 cells; [8]) was 76%. For the same compound, the “Cell counts: total” value (BG02 cells; [9]) was 8.6x10^6, the “Cell counts: viable” value (BG02 cells; [9]) was 7.8x10^6 and the “Cell counts: viable, %” value (BG02 cells; [9]) was 91%. For the same compound, the “Cell counts: total” value (BG02 cells; [10]) was 1.9x10^6, the “Cell counts: viable” value (BG02 cells; [10]) was 1.6x10^6 and the “Cell counts: viable, %” value (BG02 cells; [10]) was 84%. For the same compound, the “Cell counts: total” value (BG02 cells; [11]) was 1.4x10^7, the “Cell counts: viable” value (BG02 cells; [11]) was 1.2x10^7 and the “Cell counts: viable, %” value (BG02 cells; [11]) was 90%. The “Cell counts: total” value (BG02 cells; [12]) was 2.6x10^5, the “Cell counts: viable” value (BG02 cells; [12]) was 2.3x10^5 and the “Cell counts: viable, %” value (BG02 cells; [12]) was 91%. For the same compound, the “Cell counts: total” value (BG02 cells; [13]) was 2.7x10^6, the “Cell counts: viable” value (BG02 cells; [13]) was 2.5x10^6 and the “Cell counts: viable, %” value (BG02 cells; [13]) was 91%. The “Cell counts: total” value (BG02 cells; [14]) was 4.6x10^5, the “Cell counts: viable” value (BG02 cells; [14]) was 3.5x10^5 and the “Cell counts: viable, %” value (BG02 cells; [14]) was 75%. For the same compound, the “Cell counts: total” value (BG02 cells; [15]) was 5.7x10^6, the “Cell counts: viable” value (BG02 cells; [15]) was 5.3x10^6 and the “Cell counts: viable, %” value (BG02 cells; [15]) was 93%. The “Cell counts: total” value (BG02 cells; [16]) was 6.8x10^4, the “Cell counts: viable” value (BG02 cells; [16]) was 5.4x10^4 and the “Cell counts: viable, %” value (BG02 cells; [16]) was 79%. The “Cell counts: total” value (BG02 cells; [17]) was 1.4x10^6, the “Cell counts: viable” value (BG02 cells; [17]) was 1.3x10^6 and the “Cell counts: viable, %” value (BG02 cells; [17]) was 92%.

For `COc1cc(C=C(C#N)C(N)=O)cc(CSc2nc3ccccc3s2)c1O` [AG825, tyrphostin AG825], the proliferation (BG02 hESCs; 50 µM, conditioned medium (CM)) was “significantly inhibited proliferation”, the “time viable hESCs could be maintained” value (BG02 hESCs; in presence of AG825) was over 5 days and the “autophosphorylation of ErbB2 at tyrosine-1248” value (ErbB2) was “inhibited autophosphorylation of ErbB2 at tyrosine-1248; also recorded: inhibits ErbB2 Y1248 phosphorylation”.

`CC(C)(C)c1cc(/C=C(\C#N)C(N)=S)cc(C(C)(C)C)c1O` [AG879] was tested, and the proliferation (R1 mouse ES cells; at 20 µM) was “may have slowed proliferation”, the cell growth (R1 mouse ES cells; at 50 µM) was “substantially inhibited cell growth” and the differentiation (R1 mouse ES cells; mESCs grown in AG879) was “did not appear to differentiate”. For the same compound, the “concentration required to inhibit proliferation, mESCs relative to BG01v cells” value (R1 mouse ES cells; mESCs vs BG01v cells grown in defined conditions) was about 10 x, the cell growth (BGOlv cells; at 5 µM, 5 days) was “substantially inhibited cell growth; also recorded: substantially slowed cell growth” and the cell death (BGOlv cells; at 20 µM) was “caused cell death”. The differentiation (BGOlv cells; cultures grown in AG879) was “inhibit proliferation without inducing differentiation”.
